This note sets out measurements from patent US8394831B2, “Carbonylamino-derivatives as novel inhibitors of histone deacetylase” (Janssen Pharmaceutica, N.V., priority 2002, dated 2013).

Each structure is given as a SMILES string.

Series [1] has as its system A2780 ovarian carcinoma cells. The series can be described thus: Antiproliferative activity on A2780 cells (MTT). The note with it: four days of incubation; for IC50: Homo sapiens, 96 h, read-out: Cellular activity pIC50 (converted). The format is cell-based, human. As to the method:
Cellular activity of the compounds of formula (I) was determined on A2780 tumour cells using a colorimetric assay for cell toxicity or survival (Mosmann Tim, Journal of Immunological Methods 65: 55-63, 1983)(see example C.2).
All compounds tested were dissolved in DMSO and further dilutions were made in culture medium. Final DMSO concentrations never exceeded 0.1% (v/v) in cell proliferation assays. Controls contained A2780 cells and DMSO without compound and blanks contained DMSO but no cells. MTT was dissolved at 5 mg/ml in PBS. A glycine buffer comprised of 0.1 M glycine and 0.1 M NaCl buffered to pH 10.5 with NaOH (1 N) was prepared (all reagents were from Merck).
The human A2780 ovarian carcinoma cells (a kind gift from Dr. T. C. Hamilton [Fox Chase Cancer Centre, Pennsylvania, USA]) were cultured in RPMI 1640 medium supplemented with 2 mM L-glutamine, 50 μg/ml gentamicin and 10% fetal calf serum. Cells were routinely kept as monolayer cultures at 37° C. in a humidified 5% CO2 atmosphere. Cells were passaged once a week using a trypsin/EDTA solution at a split ratio of 1:40. All media and supplements were obtained from Life Technologies. Cells were free of mycoplasma contamination as determined using the Gen-Probe Mycoplasma Tissue Culture kit (supplier: BioMérieux).
Cells were seeded in NUNC™ 96-well culture plates (Supplier: Life Technologies) and allowed to adhere to the plastic overnight. Densities used for plating were 1500 cells per well in a total volume of 200 μl medium. After cell adhesion to the plates, medium was changed and drugs and/or solvents were added to a final volume of 200 Following four days of incubation, medium was replaced by 200 μl fresh medium and cell density and viability was assessed using an MTT-based assay. To each well, 25 μl MTT solution was added and the cells were further incubated for 2 hours at 37° C. The medium was then carefully aspirated and the blue MTT-formazan product was solubilized by addition of 25 μl glycine buffer followed by 100 μl of DMSO. […] Within an experiment, the results for each experimental condition are the mean of 3 replicate wells. For initial screening purposes, compounds were tested at a single fixed concentration of 10^−6 M. For active compounds, the experiments were repeated to establish full concentration-response curves. For each experiment, controls (containing no drug) and a blank incubation (containing no cells or drugs) were run in parallel. The blank value was subtracted from all control and sample values. For each sample, the mean value for cell growth (in absorbance units) was expressed as a percentage of the mean value for cell growth of the control. […] Herein the effects of test compounds are expressed as pIC50 (the negative log value of the IC50-value).

Series [2] concerns the target histone deacetylase (HeLa nuclear extracts). The series can be described thus: In vitro assay for inhibition of histone deacetylase. The format is biochemical. The arrangement: key: pIC50 = -log IC50. The following applies: [3H]acetylated histone H4 peptide substrate. As to the method:
The in vitro assay for inhibition of histone deacetylase (see example C.1) measures the inhibition of HDAC enzymatic activity obtained with the compounds of formula (I).
HeLa nuclear extracts (supplier: Biomol) were incubated at 60 μg/ml with 2×10^−8 M of radiolabeled peptide substrate. As a substrate for measuring HDAC activity a synthetic peptide, i.e. the amino acids 14-21 of histone H4, was used. The substrate is biotinylated at the NH2-terminal part with a 6-aminohexanoic acid spacer, and is protected at the COOH-terminal part by an amide group and specifically [^3H]acetylated at lysine 16. The substrate, biotin-(6-aminohexanoic)Gly-Ala-([^3H]-acetyl-Lys-Arg-His-Arg-Lys-Val-NH2), was added in a buffer containing 25 mM Hepes, 1 M sucrose, 0.1 mg/ml BSA and 0.01% Triton X-100 at pH 7.4. After 30 min the deacetylation reaction was terminated by the addition of HCl and acetic acid. (final concentration 0.035 mM and 3.8 mM respectively). After stopping the reaction, the free ^3H-acetate was extracted with ethylacetate. After mixing and centrifugation, the radioactivity in an aliquot of the upper (organic) phase was counted in a β-counter. For each experiment, controls (containing HeLa nuclear extract and DMSO without compound), a blank incubation (containing DMSO but no HeLa nuclear extract or compound) and samples (containing compound dissolved in DMSO and HeLa nuclear extract) were run in parallel. In first instance, compounds were tested at a concentration of 10^−5M. […] In each test the blank value was subtracted from both the control and the sample values. The control sample represented 100% of substrate deacetylation. For each sample the radioactivity was expressed as a percentage of the mean value of the controls. […] Herein the effects of test compounds are expressed as pIC50 (the negative log value of the IC50-value).

The nature of series [3]: Kinetic solubility in aqueous media. The format is physicochemical. The following applies: aqueous buffer, kinetic from dmso stock; phosphate citrate buffer pH 7.4, turbidity by nephelometer; read-out: Solubility Score. The protocol: Kinetic solubility in aqueous media measures the ability of a compound to stay in aqueous solution upon dilution (see example C.3).
DMSO-stock solutions are diluted with a single aqueous buffer solvent in 3 consecutive steps. For every dilution turbidity is measured with a nephelometer.
In the first dilution step, 10 μl of a concentrated stock-solution of the active compound, solubilized in DMSO (5 mM), was added to 100 μl phosphate citrate buffer pH 7.4 and mixed. In the second dilution step, an aliquot (20 μl) of the first dilution step was further dispensed in 100 μl phosphate citrate buffer pH 7.4 and mixed. Finally, in the third dilution step, a sample (20 μl) of the second dilution step was further diluted in 100 μl phosphate citrate buffer pH 7.4 and mixed. All dilutions were performed in 96-well plates Immediately after the last dilution step the turbidity of the three consecutive dilution steps were measured with a nephelometer. Dilution was done in triplicate for each compound to exclude occasional errors. Based on the turbidity measurements a ranking is performed into 3 classes. Compounds with high solubility obtained a score of 3 and for this compounds the first dilution is clear. Compounds with medium solubility obtained a score of 2. For these compounds the first dilution is unclear and the second dilution is clear.

In the case of `O=C(NO)c1ccc(N2CCC(NC(=O)c3ccc4ccccc4c3)CC2)cc1` [Co. No. 1], the IC50 in series [1] is 4510 nM. Moreover, the “Enzyme activity pIC50” value in series [2] was determined as 5.649.
Turning to `COc1cc(C(=O)NC2CCN(c3ccc(C(=O)NO)cn3)CC2)nc2ccccc12` [Co. No. 2], the solubility in series [3] is over 454 µM. The IC50 in series [1] is 1790 nM. The “Enzyme activity pIC50” value in series [2] stood at 6.794.
The compound `O=C(NO)c1cnc(N2CCC(CNC(=O)c3ccc4ccccc4c3)CC2)nc1` [Co. No. 3] came in with a melting point of 226 °C. Also, the solubility in series [3] was under 75.8 µM. The IC50 in series [1] was 132 nM. In addition, the “Enzyme activity pIC50” value in series [2] is 8.103.
On to `O=C(NO)c1ccc(N2CCC(NC(=O)c3ccc4ccccc4c3)CC2)nc1` [compound 5], for which the “Cellular activity pIC50” value in series [1] amounted to 5.664. In addition, the “Enzyme activity pIC50” value in series [2] came out at 6.861.
Taken in the same sequence, the figures for `O=C(NO)c1ccc(N2CCC(NC(=O)c3cc4ccccc4cn3)CC2)nc1` [compound 6] were 5.86 and 6.951.
The matching figures for `Cn1c(C(=O)NC2CCN(c3ccc(C(=O)NO)cn3)CC2)cc2ccccc21` [compound 7]: 5.331 and 6.416.
Taken in the same sequence, the figures for `O=C(NO)c1ccc(N2CCC(NC(=O)c3cc4cc(F)ccc4[nH]3)CC2)nc1` [compound 8] were 5.497 and 6.94.
On to `Cn1cc(C(=O)NC2CCN(c3ccc(C(=O)NO)cn3)CC2)c2ccccc21` [compound 9], for which, in series [1], the “Cellular activity pIC50” value is 5.579. In series [2], the “Enzyme activity pIC50” value is 6.774.
Taken in the same sequence, the figures for `COc1ccc2[nH]c(C(=O)NC3CCN(c4ccc(C(=O)NO)cn4)CC3)cc2c1` [compound 10] were 5.747 and 7.19.
The matching figures for `O=C(NO)c1cnc(N2CC[C@H](O)[C@H](CNS(=O)(=O)c3ccc4ccccc4c3)C2)nc1` [compound 11]: under 5 and 6.215.
Taken in the same sequence, the figures for `O=C(CC(c1ccccc1)c1ccccc1)NC1CCN(c2ccc(C(=O)NO)cn2)CC1` [compound 12] were 5.562 and 6.909.
On to `O=C(Cc1c[nH]c2ccccc12)NC1CCN(c2ccc(C(=O)NO)cn2)CC1` [compound 13], for which the “Cellular activity pIC50” value in series [1] is under 5. Further, the “Enzyme activity pIC50” value in series [2] was determined as 7.061.
The matching figures for `O=C(NO)c1ccc(N2CCC(NC(=O)C3CCc4ccccc43)CC2)nc1` (centres unmarked) [compound 14]: 5.175 and 6.611.

The solubility is the concentration that dissolves in the medium under given conditions. As usually defined, the melting point is the temperature, or range, at which the solid turns liquid.
